# Assay results taken from PubChem BioAssay (NCI).
# “And” between values parts separate entries of the source, which are not always exact repeats. Equal values may be shown once.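 Results reflect a 48-hour exposure of cells in 96-well plates to compound at five concentrations. At the GI50, growth is halved. The concentration for full growth arrest is given as TGI.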
# What was measured:
# Assay in all cases: DTP human tumour cell line panel, 48 h
# [1] = test system: HL-60(TB) leukemia
# [2] = test system: HT29 colon
# [3] = test system: K-562 leukemia
# [4] = test system: KM12 colon
# [5] = test system: NCI-H23 lung
# [6] = test system: NCI-H460 lung
# [7] = test system: SF-539 CNS
# [8] = test system: SK-MEL-2 melanoma
# [9] = test system: SN12C renal
# [10] = test system: SNB-75 CNS
Structure (SMILES),GI50 [1],TGI [1],GI50 [2],TGI [2],GI50 [3],TGI [3],GI50 [4],TGI [4],GI50 [5],TGI [5],GI50 [6],TGI [6],GI50 [7],TGI [7],GI50 [8],TGI [8],GI50 [9],TGI [9],GI50 [10],TGI [10]
C=C(C)[C@@H]1CC=C(CO)CC1,> 10 µM,> 10 µM and 267 µM,> 10 µM,> 10 µM and 702 µM,> 10 µM,> 10 µM and 1140 µM,> 10 µM,> 10 µM and 1050 µM,> 10 µM,> 10 µM and 1120 µM,> 10 µM,> 10 µM and 1260 µM,> 10 µM,> 10 µM and 1120 µM,> 10 µM,> 10 µM and 817 µM,> 10 µM,> 10 µM and 1220 µM,> 10 µM,> 10 µM and 374 µM
NC(=O)[C@H]1CCN(c2ncnc(N)c2F)C[C@@H]1N1CCC[C@@H](Nc2cc(Cl)cc(C(F)(F)F)c2)C1=O,20.5 µM,42.5 µM,5.29 µM,55.1 µM,18.4 µM,> 100 µM,6.31 µM,> 100 µM,20.8 µM,65.8 µM,18.4 µM,41.6 µM,14.5 µM,33.2 µM,19 µM,41.5 µM,10.9 µM,> 100 µM,12.6 µM,39.1 µM
COc1cc(Cn2cc3c(c2)-c2oncc2CC3)cc(OC)c1OC,< 0.0177 µM,0.456 µM,0.0339 µM,> 100 µM,< 0.0183 µM,> 34.7 µM,0.0312 µM,,0.048 µM,> 69.7 µM,0.034 µM,1.5 µM,0.0237 µM,0.0657 µM,7.2 µM,79.3 µM,0.0435 µM,,,
CSc1nnc(CCSc2ccnc3c(C(F)(F)F)cccc23)o1,55.1 µM,> 100 µM,> 100 µM,> 100 µM,47.3 µM,> 100 µM,> 100 µM,> 100 µM,> 100 µM,> 100 µM,> 100 µM,> 100 µM,60.6 µM,> 100 µM,> 100 µM,> 100 µM,> 100 µM,> 100 µM,19.6 µM,> 100 µM
Cn1c(=O)c2[nH]c(/N=N/N3CCN(CCO)CC3)nc2n(C)c1=O,,> 100 µM,,> 100 µM,,> 100 µM,,> 100 µM,,> 100 µM,,> 100 µM,,> 100 µM,,> 100 µM,,> 100 µM,,
CC1=C2CCCC2C/C(=N/Nc2ccc([N+](=O)[O-])cc2[N+](=O)[O-])CC1 (stereo unspecified),,83.2 µM,,> 100 µM,,> 100 µM,,> 100 µM,,> 100 µM,,> 100 µM,,> 100 µM,,> 100 µM,,> 100 µM,,> 100 µM
CC1(Sc2ccccc2)CN(Cc2ccccc2)C1=O (stereo unspecified),,> 100 µM,,> 100 µM,,> 100 µM,,> 100 µM,,> 100 µM,,> 100 µM,,> 100 µM,,> 100 µM,,> 100 µM,,> 100 µM
O=C(Nc1cccc(Cl)c1)Nc1ncc(CCNc2ncnc3ccsc23)s1,4.93 µM and 3.37 µM,28.9 µM and > 10 µM,3.33 µM and 3.03 µM,23.1 µM and > 10 µM,3.54 µM and 2.4 µM,> 100 µM,0.12 µM and 0.0657 µM,> 35.3 µM,2.08 µM and 2.49 µM,20.1 µM and > 10 µM,0.114 µM and 0.991 µM,> 72.2 µM,0.635 µM and 0.53 µM,16.9 µM and > 10 µM,2.88 µM and 1.76 µM,10.8 µM and 6.26 µM,3.91 µM and 3.82 µM,18.6 µM and > 10 µM,1.62 µM and 1.02 µM,19.5 µM and > 10 µM
CC(=O)/C(=C\c1ccco1)C(=O)Nc1ccccc1,,> 100 µM,,> 100 µM,,> 100 µM,,> 100 µM,,> 100 µM,,> 100 µM,,> 100 µM,,> 100 µM,,> 100 µM,,
NCC1(N2CCOCC2)C2CCCC21CO (stereo unspecified),,> 100 µM,,> 100 µM,,> 100 µM,,> 100 µM,,> 100 µM,,> 100 µM,,> 100 µM,,> 100 µM,,> 100 µM,,> 100 µM
COC(=O)[C@@H]1CSC(=S)N1C(=O)C[C@H]1CC=CC[C@H]1CC(=O)Sc1ccccc1,,14 µM,,37.4 µM,,38.9 µM,,34.1 µM,,46.5 µM,,33.5 µM,,32.1 µM,,52 µM,,30.4 µM,,29 µM
CC1=C(C(=O)OCc2ccccc2)C(c2ccc3c(c2)OCO3)n2c(nc3ccccc32)N1 (stereo unspecified),0.341 µM,> 100 µM,0.352 µM,> 100 µM,0.276 µM,> 100 µM,0.334 µM,> 100 µM,> 56.4 µM,> 100 µM,0.369 µM,> 100 µM,0.34 µM,> 100 µM,,> 100 µM,,,0.215 µM,0.801 µM
CC1(C)CCC2(C(=O)OC3OC(CO)C(O)C(O)C3O)CC[C@]3(C)C(=CCC4C5(C)CC[C@H](OC6OC(C(=O)O)C(O)C(O)C6O)C(C)(C)C5CCC43C)C2C1 (stereo partly specified),1.22 µM,3.45 µM,2.07 µM,> 50 µM,1.58 µM,> 50 µM,2.08 µM,9.47 µM,1.48 µM,3.73 µM,2.51 µM,> 50 µM,,,1.85 µM,10.7 µM,1.39 µM,3.55 µM,,
CC12CCC=CC1CCC1C2CCC2(C)C(c3ccc(=O)oc3)CCC12O (stereo unspecified),0.0257 µM,0.0689 µM,0.0516 µM,0.801 µM,0.0587 µM,,0.134 µM,1.45 µM,0.0492 µM,0.302 µM,,,0.0531 µM,0.18 µM,0.25 µM,0.828 µM,0.0422 µM,0.571 µM,0.0282 µM,0.164 µM
CS(=O)(=O)CC1=Nc2nnc(CCCCCCCc3nnc4n3C(=O)C(CS(C)(=O)=O)=N4)n2C1=O,,> 100 µM,,> 100 µM,,> 100 µM,,> 100 µM,,> 100 µM,,> 100 µM,,> 100 µM,,,,> 100 µM,,> 100 µM
C=C1C(=O)O[C@@H]2C1CC(=O)C(C)CC/C=C(\C)CCC[C@H](C)[C@H]2OC(C)=O (stereo partly specified),,,5.28 µM,> 100 µM,3.52 µM,15.3 µM,12.8 µM,29.1 µM,13.9 µM,29.5 µM,21.2 µM,43.6 µM,18.3 µM,34.6 µM,17.6 µM,45.5 µM,5.46 µM,21.6 µM,14.9 µM,29.8 µM
